# According to US10800786B2, “Bicyclic compounds as ATX inhibitors” (Hoffmann-La Roche Inc., priority 2015, dated 2020):
# Target: ATX (human His-tagged) (Homo sapiens (Human), UniProt Q13822)
# Assay: Human ATX enzyme inhibition assay (fluorescence quenching, MR121 substrate)
# Format: biochemical
# Settings: not given
# Protocol: Human Atx Enzyme Inhibition Assay
# Assay working solutions were made as follows:
# Assay buffer (50 mM Tris-HCl, 140 mM NaCl, 5 mM KCl, 1 mM CaCl2, 1 mM MgCl2, 0.01% Triton-X-100, pH 8.0;
# MR121 substrate solution: MR121 substrate stock solution (800 μM MR121 substrate in DMSO), diluted to 2-5× final concentration in assay buffer.
# 10 μL of MR121 substrate solution was added ([…] final concentration), mixed 30 times and then incubated for 15 minutes at 30° C.
row,IC50 [nM],Compound
1,10,"O=C(c1cc(OCC2CCOCC2)nc(C2CC2)c1)N1CC2=C(CC(C(=O)N3CCc4[nH]nnc4C3)C2)C1 [Example 4.01, [2-cyclopropyl-6-(oxan-4-ylmethoxy)pyridin-4-yl]-[5-(1,4,6,7-tetrahydrotriazolo[4,5-c]pyridine-5-carbonyl)-3,4,5,6-tetrahydro-1H-cyclopenta[c]pyrrol-2-yl]methanone]"

# Same assay, conditions: 30 nM ATX, MR121 substrate, 30° C., pH 8.0; read-out: ATX IC50
row,IC50 [nM],Compound
1,7,"CC(C)(C)C(=O)Nc1cc(C(F)(F)F)cnc1COC(=O)N1CC2=C(C1)CN(C(=O)[C@@H]1CCc3[nH]nnc3C1)C2 [Example 1.00, [3-(2,2-Dimethylpropanoylamino)-5-(trifluoromethyl)pyridin-2-yl]methyl 2-[(5R)-4,5,6,7-tetrahydro-1H-benzotriazole-5-carbonyl]-1,3,4,6-tetrahydropyrrolo[3,4-c]pyrrole-5-carboxylate]"
2,8,"Cn1c(=O)[nH]c2ccc(C(=O)N3CC4=C(CN(C(=O)c5cc(OCC6CCOCC6)nc(C6CC6)c5)C4)C3)cc21 [Example 1.01, 6-(5-(2-cyclopropyl-6-((tetrahydro-2H-pyran-4-yl)methoxy)isonicotinoyl)-1,2,3,4,5,6-hexahydropyrrolo[3,4-c]pyrrole-2-carbonyl)-1-methyl-1H-benzo[d]imidazol-2(3H)-one]"
3,5,"O=C(c1cc(OCC2CCOCC2)nc(C2CC2)c1)N1CC2=C(C1)CN(C(=O)[C@@H]1CCc3[nH]nnc3C1)C2 [Example 1.02, [2-cyclopropyl-6-(oxan-4-ylmethoxy)pyridin-4-yl]-[5-[(5R)-4,5,6,7-tetrahydro-1H-benzotriazole-5-carbonyl]-1,3,4,6-tetrahydropyrrolo[3,4-c]pyrrol-2-yl]methanone]"
4,5,O=C(c1cc(OCC2CCOCC2)nc(C2CC2)c1)N1CC2=C(C1)CN(C(=O)c1ccc3[nH]nnc3c1)C2 [Example 1.03]
5,8,"CC(C)(C)C(=O)Nc1cc(C(F)(F)F)cnc1COC(=O)N1CC2=C(C1)CN(C(=O)c1ccc3[nH]nnc3c1)C2 [Example 1.04, [3-(2,2-dimethylpropanoylamino)-5-(trifluoromethyl)pyridin-2-yl]methyl 2-(1H-benzotriazole-5-carbonyl)-1,3,4,6-tetrahydropyrrolo[3,4-c]pyrrole-5-carboxylate]"
6,3,"O=C(OCc1ccc(OC(F)(F)F)cc1)N1CC2=C(C1)CN(C(=O)c1ccc3[nH]nnc3c1)C2 [Example 1.05, 4-(trifluoromethoxy)benzyl 5-(1H-benzo[d][1,2,3]triazole-5-carbonyl)-3,4,5,6-tetrahydropyrrolo[3,4-c]pyrrole-2(1H)-carboxylate]"
7,11,"Cc1nnn(Cc2cc(C(F)(F)F)ccc2CCC(=O)N2CC3=C(C2)CN(C(=O)c2ccc4[nH]nnc4c2)C3)n1 [Example 1.06, 1-[5-(1H-benzotriazole-5-carbonyl)-1,3,4,6-tetrahydropyrrolo[3,4-c]pyrrol-2-yl]-3-[2-[(5-methyltetrazol-2-yl)methyl]-4-(trifluoromethyl)phenyl]propan-1-one]"
8,17,"CC(C)(C)C(=O)Nc1cc(C(F)(F)F)cnc1COC(=O)N1CCC2=C(CCN(C(=O)c3ccc4[nH]nnc4c3)C2)C1 [Example 1.07, [3-(2,2-dimethylpropanoylamino)-5-(trifluoromethyl)pyridin-2-yl]methyl 6-(1H-benzotriazole-5-carbonyl)-1,3,4,5,7,8-hexahydro-2,6-naphthyridine-2-carboxylate]"
9,7,"CC(C)(C)C(=O)Nc1cc(Cl)c(Cl)nc1COC(=O)N1CC2=C(C1)CN(C(=O)c1ccc3[nH]nnc3c1)C2 [Example 1.08, [5,6-dichloro-3-(2,2-dimethylpropanoylamino)pyridin-2-yl]methyl 2-(1H-benzotriazole-5-carbonyl)-1,3,4,6-tetrahydropyrrolo[3,4-c]pyrrole-5-carboxylate]"
10,4,"O=C(c1cc(OCC2CCOCC2)nc(C2CC2)c1)N1CC2=C(C1)CN(C(=O)c1ccc3c(O)noc3c1)C2 [Example 1.09, [5-[2-cyclopropyl-6-(oxan-4-ylmethoxy)pyridine-4-carbonyl]-1,3,4,6-tetrahydropyrrolo[3,4-c]pyrrol-2-yl]-(3-hydroxy-1,2-benzoxazol-6-yl)methanone]"
11,13,"O=C1NS(=O)(=O)c2cc(C(=O)N3CC4=C(CN(C(=O)c5cc(OCC6CCOCC6)nc(C6CC6)c5)C4)C3)ccc21 [Example 1.10, 6-[5-[2-cyclopropyl-6-(oxan-4-ylmethoxy)pyridine-4-carbonyl]-1,3,4,6-tetrahydropyrrolo[3,4-c]pyrrole-2-carbonyl]-1,1-dioxo-1,2-benzothiazol-3-one]"
12,5,"CC(C)(C)C(=O)Nc1cc(C(F)(F)F)cnc1COC(=O)N1CC2=C(C1)CN(C(=O)N1CCc3[nH]nnc3C1)C2 [Example 2.00, [3-(2,2-Dimethylpropanoylamino)-5-(trifluoromethyl)pyridin-2-yl]methyl 2-(1,4,6,7-tetrahydrotriazolo[4,5-c]pyridine-5-carbonyl)-1,3,4,6-tetrahydropyrrolo[3,4-c]pyrrole-5-carboxylate]"
13,6,"O=C(c1cc(OCC2CCOCC2)nc(C2CC2)c1)N1CC2=C(C1)CN(C(=O)N1CCc3[nH]nnc3C1)C2 [Example 2.02, [2-cyclopropyl-6-(oxan-4-ylmethoxy)pyridin-4-yl]-[5-(1,4,6,7-tetrahydrotriazolo[4,5-c]pyridine-5-carbonyl)-1,3,4,6-tetrahydropyrrolo[3,4-c]pyrrol-2-yl]methanone]"
14,5.5,"NS(=O)(=O)C1CCN(C(=O)N2CC3=C(CN(C(=O)c4cc(OCC5CCOCC5)nc(C5CC5)c4)C3)C2)CC1 [Example 2.04, 1-[2-[2-cyclopropyl-6-(oxan-4-ylmethoxy)pyridine-4-carbonyl]-1,3,4,6-tetrahydropyrrolo[3,4-c]pyrrole-5-carbonyl]piperidine-4-sulfonamide]"
15,10,"O=C(c1cc(OCC2CCOCC2)nc(C2CC2)c1)N1CC2=C(C1)CN(C(=O)N1CCc3c(cn[nH]c3=O)C1)C2 [Example 2.08, 6-[2-[2-cyclopropyl-6-(oxan-4-ylmethoxy)pyridine-4-carbonyl]-1,3,4,6-tetrahydropyrrolo[3,4-c]pyrrole-5-carbonyl]-2,5,7,8-tetrahydropyrido[3,4-d]pyridazin-1-one]"
16,441,"O=C(c1cc(OCC2CCOCC2)nc(C2CC2)c1)N1CC2=C(C1)CN(C(=O)N1CCc3c(n[nH]c3O)C1)C2 [Example 2.12, [2-cyclopropyl-6-(oxan-4-ylmethoxy)pyridin-4-yl]-[5-(3-hydroxy-2,4,5,7-tetrahydropyrazolo[3,4-c]pyridine-6-carbonyl)-1,3,4,6-tetrahydropyrrolo[3,4-c]pyrrol-2-yl]methanone]"
17,97,"O=C(c1cc(OCC2CCOCC2)nc(C2CC2)c1)N1CC2=C(C1)CN(C(=O)N1CCc3onc(O)c3C1)C2 [Example 2.13, [2-cyclopropyl-6-(oxan-4-ylmethoxy)pyridin-4-yl]-[5-(3-hydroxy-6,7-dihydro-4H-[1,2]oxazolo[4,5-c]pyridine-5-carbonyl)-1,3,4,6-tetrahydropyrrolo[3,4-c]pyrrol-2-yl]methanone]"
18,122,"O=C1NC(=O)N2CCN(C(=O)N3CC4=C(CN(C(=O)c5cc(OCC6CCOCC6)nc(C6CC6)c5)C4)C3)CC12 (centres unmarked) [Example 2.14, 7-[2-[2-cyclopropyl-6-(oxan-4-ylmethoxy)pyridine-4-carbonyl]-1,3,4,6-tetrahydropyrrolo[3,4-c]pyrrole-5-carbonyl]-5,6,8,8a-tetrahydroimidazo[1,5-a]pyrazine-1,3-dione]"
19,36,"O=C(OCc1c[nH]nn1)N1CC2=C(C1)CN(C(=O)c1cc(OCC3CCOCC3)nc(C3CC3)c1)C2 [Example 3.00, (1H-1,2,3-Triazol-4-yl)methyl 5-(2-cyclopropyl-6-((tetrahydro-2H-pyran-4-yl)methoxy)isonicotinoyl)-3,4,5,6-tetrahydropyrrolo[3,4-c]pyrrole-2(1H)-carboxylate]"
20,11,"NS(=O)(=O)C1CCN(C(=O)C2CC3=C(C2)CN(C(=O)c2cc(OCC4CCOCC4)nc(C4CC4)c2)C3)CC1 [Example 4.00, 1-[2-[2-Cyclopropyl-6-(oxan-4-ylmethoxy)pyridine-4-carbonyl]-3,4,5,6-tetrahydro-1H-cyclopenta[c]pyrrole-5-carbonyl]piperidine-4-sulfonamide]"
21,1,"O=C(c1cc(OCC2CCOCC2)nc(C2CC2)c1)N1CC2=C(CN(Cc3ccc4[nH]c(=O)oc4c3)C2)C1 [Example 5.00, 6-[[5-[2-Cyclopropyl-6-(oxan-4-ylmethoxy)pyridine-4-carbonyl]-1,3,4,6-tetrahydropyrrolo[3,4-c]pyrrol-2-yl]methyl]-3H-1,3-benzoxazol-2-one]"
22,3,"NS(=O)(=O)C1(F)CCN(C(=O)N2CC3=C(CN(C(=O)c4cc(OCC5CCOCC5)nc(C5CC5)c4)C3)C2)CC1 [Example 6.00, 1-[2-[2-Cyclopropyl-6-(oxan-4-ylmethoxy)pyridine-4-carbonyl]-1,3,4,6-tetrahydropyrrolo[3,4-c]pyrrole-5-carbonyl]-4-fluoropiperidine-4-sulfonamide]"
